Laboratory results: ChEMBL document CHEMBL6074715, “Discovery of pyridine-based derivatives as FLT3 inhibitors for the treatment of acute myeloid leukemia” (Eur J Med Chem, 2025)
Active and inactive are the calls of the source. The rule behind the calls is not given here.

Experiments:
THP-1 = experiment: Antiproliferative activity against human THP-1 cells harbouring wild type FLT3 assessed as inhibition of cell growth measured after 72 hrs by Celltiter-glo luminescent cell viability assay; assay type: functional, cell-based; conditions: THP-1, 72 h
MOLM-13 [1] = experiment: Induction of cell cycle arrest in human MOLM-13 cells assessed as accumulation of cells at S phase at 0.3 uM measured after 48 hrs by PI staining based flow cytometry analysis (reference value: 45.3%); assay type: functional
[2] = molecular target: Receptor-type tyrosine-protein kinase FLT3 (Homo sapiens) (UniProt P36888); experiment: Inhibition of FLT3 phosphorylation in human MOLM-13 cells at 40 nM incubated for 2 hrs by Western blot analysis relative to control; assay type: cell-based
Receptor-type tyrosine-protein kinase FLT3 (Homo sapiens), sequence (P36888 whole entry): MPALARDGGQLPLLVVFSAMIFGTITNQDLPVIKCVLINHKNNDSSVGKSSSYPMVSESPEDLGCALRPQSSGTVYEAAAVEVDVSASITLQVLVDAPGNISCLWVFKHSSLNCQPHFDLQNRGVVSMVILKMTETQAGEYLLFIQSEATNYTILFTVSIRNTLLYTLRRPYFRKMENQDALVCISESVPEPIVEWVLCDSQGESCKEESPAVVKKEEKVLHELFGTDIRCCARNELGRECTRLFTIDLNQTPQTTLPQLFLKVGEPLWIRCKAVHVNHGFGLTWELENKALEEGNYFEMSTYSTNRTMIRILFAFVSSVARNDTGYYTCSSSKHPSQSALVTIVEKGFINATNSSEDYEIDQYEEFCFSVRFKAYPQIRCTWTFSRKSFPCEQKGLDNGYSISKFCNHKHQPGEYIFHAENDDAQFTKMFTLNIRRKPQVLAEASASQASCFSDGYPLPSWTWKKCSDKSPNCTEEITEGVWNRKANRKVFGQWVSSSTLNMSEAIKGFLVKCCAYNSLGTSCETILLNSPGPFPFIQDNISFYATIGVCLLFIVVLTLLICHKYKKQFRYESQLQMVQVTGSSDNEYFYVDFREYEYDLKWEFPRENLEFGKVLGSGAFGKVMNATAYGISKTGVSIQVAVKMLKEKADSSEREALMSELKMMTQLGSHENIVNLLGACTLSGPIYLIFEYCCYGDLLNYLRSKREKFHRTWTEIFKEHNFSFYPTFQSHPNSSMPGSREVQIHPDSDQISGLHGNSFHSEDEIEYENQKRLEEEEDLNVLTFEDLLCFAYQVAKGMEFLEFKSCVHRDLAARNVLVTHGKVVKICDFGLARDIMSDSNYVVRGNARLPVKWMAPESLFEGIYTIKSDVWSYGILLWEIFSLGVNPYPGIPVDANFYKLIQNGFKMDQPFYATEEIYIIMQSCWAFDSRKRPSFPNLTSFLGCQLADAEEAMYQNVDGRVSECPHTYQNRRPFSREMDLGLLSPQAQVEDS

MOLM-13 [3] = experiment: Induction of cell cycle arrest in human MOLM-13 cells assessed as accumulation of cells at G1 phase at 1 uM measured after 48 hrs by PI staining based flow cytometry analysis (reference value: 42.8%); assay type: functional
MOLM-13 [4] = experiment: Induction of cell cycle arrest in human MOLM-13 cells assessed as accumulation of cells at G1 phase at 3 uM measured after 48 hrs by PI staining based flow cytometry analysis (reference value: 42.8%); assay type: functional
MOLM-13 [5] = experiment: Induction of cell cycle arrest in human MOLM-13 cells assessed as accumulation of cells at G2 phase at 0.3 uM measured after 48 hrs by PI staining based flow cytometry analysis (reference value: 12.5%); assay type: functional
MOLM-13 [6] = experiment: Induction of cell cycle arrest in human MOLM-13 cells assessed as accumulation of cells at G2 phase at 3 uM measured after 48 hrs by PI staining based flow cytometry analysis (reference value: 12.5%); assay type: functional
MOLM-13 [7] = experiment: Induction of apoptosis in human MOLM-13 cells assessed as early apoptotic cells at 1 uM measured after 48 hrs by annexin-V and PI staining based flow cytometry analysis (reference value: 8.92%); assay type: functional
MOLM-13 [8] = experiment: Induction of apoptosis in human MOLM-13 cells assessed as late apoptotic cells at 1 uM measured after 48 hrs by annexin-V and PI staining based flow cytometry analysis (reference value: 2.28%); assay type: functional
MOLM-13 [9] = experiment: Induction of apoptosis in human MOLM-13 cells assessed as late apoptotic cells at 3 uM measured after 48 hrs by annexin-V and PI staining based flow cytometry analysis (reference value: 2.28%); assay type: functional
MOLM-13 [10] = experiment: Induction of apoptosis in human MOLM-13 cells assessed as necrotic cells at 1 uM measured after 48 hrs by annexin-V and PI staining based flow cytometry analysis (reference value: 0.087%); assay type: functional
MOLM-13 [11] = experiment: Induction of apoptosis in human MOLM-13 cells assessed as necrotic cells at 3 uM measured after 48 hrs by annexin-V and PI staining based flow cytometry analysis (reference value: 0.087%); assay type: functional
[12] = AUC (0 to t) in Sprague-Dawley rat at 5 mg/kg, iv measured upto 48 hrs by LC-MS/MS analysis; assay type: ADME, organism-based; conditions: in vivo
[13] = MRT (0 to t) in Sprague-Dawley rat at 20 mg/kg, po measured upto 48 hrs by LC-MS/MS analysis; assay type: ADME, organism-based; conditions: in vivo
[14] = Oral bioavailability in Sprague-Dawley rat at 20 mg/kg measured upto 48 hrs by LC-MS/MS analysis; assay type: ADME, organism-based; conditions: in vivo
MOLM-13 [15] = experiment: Antitumor activity against human MOLM-13 cells xenografted in female NSG mouse model assessed as delay in tumor growth at 20 to 40 mg/kg/day, po measured after 21 days; assay type: functional, organism-based; conditions: dose 20-40 mg/kg/day, time 21.0 day
[16] = Toxicity in female NSG mouse assessed as effect on heart at 20 to 40 mg/kg, po measured after 21 days by H and E staining based analysis; assay type: organism-based; conditions: in vivo, 504 h, dose 20-40 mg/kg, time 21 day
[17] = molecular target: T1, Vascular endothelial growth factor receptor 3 (Homo sapiens, UniProt P35916); experiment: Inhibition of human FLT4 assessed as residual activity at 1 uM by Eurofins kinase assay relative to control
T1 sequence (P35916 whole entry): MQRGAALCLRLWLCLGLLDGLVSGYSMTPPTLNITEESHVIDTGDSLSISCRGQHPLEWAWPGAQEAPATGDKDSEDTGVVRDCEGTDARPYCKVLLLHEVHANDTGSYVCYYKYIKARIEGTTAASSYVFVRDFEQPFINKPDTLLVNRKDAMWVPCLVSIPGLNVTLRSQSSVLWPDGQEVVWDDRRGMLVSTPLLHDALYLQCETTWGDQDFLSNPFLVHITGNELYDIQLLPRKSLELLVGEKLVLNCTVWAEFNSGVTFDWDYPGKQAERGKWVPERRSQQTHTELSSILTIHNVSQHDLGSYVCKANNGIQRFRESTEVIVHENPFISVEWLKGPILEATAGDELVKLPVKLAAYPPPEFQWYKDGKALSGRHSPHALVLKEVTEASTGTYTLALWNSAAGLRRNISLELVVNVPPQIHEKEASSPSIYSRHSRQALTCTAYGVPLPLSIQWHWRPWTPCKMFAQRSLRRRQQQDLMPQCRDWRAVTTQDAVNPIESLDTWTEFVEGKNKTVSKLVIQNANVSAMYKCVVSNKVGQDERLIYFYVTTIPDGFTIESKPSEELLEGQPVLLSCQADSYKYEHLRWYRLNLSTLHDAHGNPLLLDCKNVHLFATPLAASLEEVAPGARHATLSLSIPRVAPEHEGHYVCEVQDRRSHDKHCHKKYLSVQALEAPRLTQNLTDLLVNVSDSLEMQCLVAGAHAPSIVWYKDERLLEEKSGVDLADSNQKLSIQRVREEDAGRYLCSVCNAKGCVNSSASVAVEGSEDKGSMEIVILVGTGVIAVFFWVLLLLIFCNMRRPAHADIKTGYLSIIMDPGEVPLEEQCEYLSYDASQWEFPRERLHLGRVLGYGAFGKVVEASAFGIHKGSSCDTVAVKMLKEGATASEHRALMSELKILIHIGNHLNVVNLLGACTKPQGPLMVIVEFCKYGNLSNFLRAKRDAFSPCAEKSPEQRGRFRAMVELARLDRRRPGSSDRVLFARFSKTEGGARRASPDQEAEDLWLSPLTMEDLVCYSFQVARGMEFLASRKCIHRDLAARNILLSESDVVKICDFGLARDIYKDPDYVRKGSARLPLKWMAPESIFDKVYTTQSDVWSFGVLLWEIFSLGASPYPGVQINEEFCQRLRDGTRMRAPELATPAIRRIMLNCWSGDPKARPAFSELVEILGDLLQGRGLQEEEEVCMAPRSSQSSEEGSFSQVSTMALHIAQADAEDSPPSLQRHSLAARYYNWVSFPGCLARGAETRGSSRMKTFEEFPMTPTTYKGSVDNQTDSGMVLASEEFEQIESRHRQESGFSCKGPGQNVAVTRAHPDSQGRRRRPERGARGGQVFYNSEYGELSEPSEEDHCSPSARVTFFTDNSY

[18] = molecular target: Tyrosine-protein kinase ABL1 (Homo sapiens) (UniProt P00519); experiment: Inhibition of human ABL1 at 1 uM by Eurofins kinase assay
[19] = molecular target: ALK tyrosine kinase receptor (Homo sapiens) (UniProt Q9UM73); experiment: Inhibition of human ALK at 1 uM by Eurofins kinase assay
[20] = molecular target: Tyrosine-protein kinase receptor UFO (Homo sapiens) (UniProt P30530); experiment: Inhibition of human AXL at 1 uM by Eurofins kinase assay
[21] = molecular target: Aurora kinase B (Homo sapiens) (UniProt Q96GD4); experiment: Inhibition of human AuroraB at 1 uM by Eurofins kinase assay
[22] = system: Mast/stem cell growth factor receptor Kit (Homo sapiens), P10721 [V654A]; experiment: Inhibition of human c-kit V654A mutant at 1 uM by Eurofins kinase assay
[23] = molecular target: Receptor-type tyrosine-protein kinase FLT3 (Homo sapiens) (UniProt P36888); experiment: Inhibition of human FLT3 at 1 uM by Eurofins kinase assay
[24] = system: Receptor-type tyrosine-protein kinase FLT3 (Homo sapiens), P36888 [UNDEFINED MUTATION]; experiment: Inhibition of human FLT3-ITD at 1 uM by Eurofins kinase assay
Receptor-type tyrosine-protein kinase FLT3 (Homo sapiens), P36888 [UNDEFINED MUTATION], sequence (P36888 whole entry, looked up, stated change not applied): as the sequence (P36888 whole entry) above

[25] = molecular target: Tyrosine-protein kinase JAK2 (Homo sapiens) (UniProt O60674); experiment: Inhibition of human JAK2 at 1 uM by Eurofins kinase assay
[26] = molecular target: T2, Vascular endothelial growth factor receptor 2 (Homo sapiens, UniProt P35968); experiment: Inhibition of human KDR at 1 uM by Eurofins kinase assay
T2 sequence (P35968 whole entry): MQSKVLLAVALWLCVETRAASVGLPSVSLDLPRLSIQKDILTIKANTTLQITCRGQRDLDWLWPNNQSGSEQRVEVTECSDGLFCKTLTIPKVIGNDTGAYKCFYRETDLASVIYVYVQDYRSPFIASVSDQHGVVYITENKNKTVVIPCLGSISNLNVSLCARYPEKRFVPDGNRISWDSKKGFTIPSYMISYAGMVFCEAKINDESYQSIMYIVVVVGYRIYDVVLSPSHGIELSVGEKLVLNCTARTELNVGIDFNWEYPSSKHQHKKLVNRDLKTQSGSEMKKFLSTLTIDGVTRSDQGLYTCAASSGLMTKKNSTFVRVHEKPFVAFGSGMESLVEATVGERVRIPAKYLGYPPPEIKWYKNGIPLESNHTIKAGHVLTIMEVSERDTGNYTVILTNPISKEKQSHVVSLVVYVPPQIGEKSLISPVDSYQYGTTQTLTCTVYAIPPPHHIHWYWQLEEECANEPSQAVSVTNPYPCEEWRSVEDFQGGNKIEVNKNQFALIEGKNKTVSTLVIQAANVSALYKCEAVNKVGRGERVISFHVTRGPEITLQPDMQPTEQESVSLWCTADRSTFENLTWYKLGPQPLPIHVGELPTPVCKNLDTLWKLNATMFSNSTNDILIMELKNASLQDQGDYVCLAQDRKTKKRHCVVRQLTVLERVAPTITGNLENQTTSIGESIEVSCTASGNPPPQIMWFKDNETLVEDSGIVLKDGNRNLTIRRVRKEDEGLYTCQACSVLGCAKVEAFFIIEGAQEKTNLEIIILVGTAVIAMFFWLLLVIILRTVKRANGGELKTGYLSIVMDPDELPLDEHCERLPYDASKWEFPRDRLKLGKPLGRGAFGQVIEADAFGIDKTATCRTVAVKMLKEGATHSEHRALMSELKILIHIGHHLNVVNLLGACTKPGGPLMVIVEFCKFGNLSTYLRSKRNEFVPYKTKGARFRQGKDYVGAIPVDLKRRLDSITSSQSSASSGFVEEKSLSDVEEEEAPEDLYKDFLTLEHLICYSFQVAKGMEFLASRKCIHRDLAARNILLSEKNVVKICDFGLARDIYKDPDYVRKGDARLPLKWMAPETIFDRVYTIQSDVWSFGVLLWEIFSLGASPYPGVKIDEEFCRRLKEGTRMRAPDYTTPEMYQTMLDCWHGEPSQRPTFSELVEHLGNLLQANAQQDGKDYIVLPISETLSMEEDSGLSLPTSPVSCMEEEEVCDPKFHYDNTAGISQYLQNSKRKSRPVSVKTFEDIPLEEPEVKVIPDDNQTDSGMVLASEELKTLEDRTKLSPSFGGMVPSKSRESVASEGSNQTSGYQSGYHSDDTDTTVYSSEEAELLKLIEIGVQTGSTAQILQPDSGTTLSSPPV

[27] = molecular target: Serine/threonine-protein kinase PAK 4 (Homo sapiens) (UniProt O96013); experiment: Inhibition of human PAK4 at 1 uM by Eurofins kinase assay
Serine/threonine-protein kinase PAK 4 (Homo sapiens), sequence (O96013 whole entry, looked up): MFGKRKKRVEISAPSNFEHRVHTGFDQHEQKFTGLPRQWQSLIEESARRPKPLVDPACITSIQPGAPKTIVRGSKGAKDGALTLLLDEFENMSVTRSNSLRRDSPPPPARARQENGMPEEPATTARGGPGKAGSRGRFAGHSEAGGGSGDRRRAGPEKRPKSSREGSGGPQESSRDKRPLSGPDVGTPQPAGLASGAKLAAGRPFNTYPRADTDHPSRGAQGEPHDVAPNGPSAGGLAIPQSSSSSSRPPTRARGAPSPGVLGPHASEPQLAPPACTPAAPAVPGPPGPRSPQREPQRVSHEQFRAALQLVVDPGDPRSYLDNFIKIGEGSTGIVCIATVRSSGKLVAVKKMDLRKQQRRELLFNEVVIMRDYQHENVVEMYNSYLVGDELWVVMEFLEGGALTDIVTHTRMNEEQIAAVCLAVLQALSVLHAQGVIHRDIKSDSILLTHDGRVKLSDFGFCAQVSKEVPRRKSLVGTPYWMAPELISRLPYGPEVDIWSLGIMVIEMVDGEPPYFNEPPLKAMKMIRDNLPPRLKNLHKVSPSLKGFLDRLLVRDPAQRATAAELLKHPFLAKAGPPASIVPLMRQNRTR

Homo sapiens = organism: Homo sapiens; experiment: Inhibition of human Rct at 1 uM by Eurofins kinase assay
[28] = molecular target: Receptor-interacting serine/threonine-protein kinase 1 (Homo sapiens) (UniProt Q13546); experiment: Inhibition of human RIPK1 at 1 uM by Eurofins kinase assay
Receptor-interacting serine/threonine-protein kinase 1 (Homo sapiens), sequence (Q13546 whole entry): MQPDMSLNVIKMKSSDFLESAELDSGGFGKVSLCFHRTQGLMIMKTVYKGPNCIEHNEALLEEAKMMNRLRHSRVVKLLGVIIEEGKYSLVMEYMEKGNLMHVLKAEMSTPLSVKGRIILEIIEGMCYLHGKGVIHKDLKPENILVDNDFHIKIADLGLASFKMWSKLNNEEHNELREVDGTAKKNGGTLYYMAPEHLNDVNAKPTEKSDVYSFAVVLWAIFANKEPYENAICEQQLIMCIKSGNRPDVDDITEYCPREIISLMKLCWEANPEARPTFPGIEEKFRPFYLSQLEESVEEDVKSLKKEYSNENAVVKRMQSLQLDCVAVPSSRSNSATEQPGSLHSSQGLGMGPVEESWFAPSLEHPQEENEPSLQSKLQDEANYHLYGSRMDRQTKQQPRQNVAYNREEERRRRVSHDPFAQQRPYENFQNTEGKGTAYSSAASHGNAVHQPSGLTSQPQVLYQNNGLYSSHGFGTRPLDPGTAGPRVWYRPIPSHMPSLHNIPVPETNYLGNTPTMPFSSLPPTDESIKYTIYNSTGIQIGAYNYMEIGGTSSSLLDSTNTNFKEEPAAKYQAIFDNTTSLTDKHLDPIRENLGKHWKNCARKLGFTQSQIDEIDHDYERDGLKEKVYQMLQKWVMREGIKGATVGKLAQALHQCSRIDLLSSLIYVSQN

[29] = molecular target: Non-receptor tyrosine-protein kinase TYK2 (Homo sapiens) (UniProt P29597); experiment: Inhibition of human TYK2 at 1 uM by Eurofins kinase assay
[30] = molecular target: Tyrosine-protein kinase ZAP-70 (Homo sapiens) (UniProt P43403); experiment: Inhibition of human ZAP-70 at 1 uM by Eurofins kinase assay
[31] = molecular target: Receptor-type tyrosine-protein kinase FLT3 (Homo sapiens, UniProt P36888, ITD); experiment: Inhibition of FLT3 ITD mutant (unknown origin) preincubated for 10 mins followed by addition of peptide solution by caliper mobility shift assay
Receptor-type tyrosine-protein kinase FLT3, sequence (P36888 whole entry, looked up, stated change not applied): as the sequence (P36888 whole entry) above

[32] = molecular target: T2, Vascular endothelial growth factor receptor 2; experiment: Inhibition of VEGFR2 (unknown origin) preincubated for 10 mins followed by addition of peptide solution by caliper mobility shift assay
[33] = molecular target: Vascular endothelial growth factor receptor 1 (Homo sapiens, UniProt P17948); experiment: Inhibition of FLT (unknown origin) preincubated for 10 mins followed by addition of peptide solution by caliper mobility shift assay
[34] = molecular target: T1, Vascular endothelial growth factor receptor 3; experiment: Inhibition of FLT4 (unknown origin) preincubated for 10 mins followed by addition of peptide solution by caliper mobility shift assay
[35] = molecular target: Macrophage colony-stimulating factor 1 receptor (Homo sapiens, UniProt P07333); experiment: Inhibition of FMS (unknown origin) preincubated for 10 mins followed by addition of peptide solution by caliper mobility shift assay

SMILES: O=C(Nc1ccc(Oc2ccnc(NC(=O)N3CC(O)C3)c2)c(F)c1)c1cn(-c2cccnc2)nn1
- IC50 (THP-1): 10800 nM
- Activity (MOLM-13 [1]): 14%
- inhibition [2]: 100%
- Activity (MOLM-13 [3]): 87.7%
- Activity (MOLM-13 [4]): 89.9%
- Activity (MOLM-13 [5]): 4.21%
- Activity (MOLM-13 [6]): 1.05%
- Activity (MOLM-13 [7]): 33.6%
- Activity (MOLM-13 [8]): 9.44%
- Activity (MOLM-13 [9]): 11%
- Activity (MOLM-13 [10]): 0.26%
- Activity (MOLM-13 [11]): 0.097%
- AUC(0-t) at 48 h [12]: 59300 ng·h/mL
- MRT last at 48 h [13]: 4.49 h
- bioavailability [14]: 19.2%
- Activity (MOLM-13 [15]): Active
- Activity [16]: Non-toxic
- Activity [17]: 22%
- inhibition [18]: inactive
- inhibition [19]: inactive
- inhibition [20]: inactive
- inhibition [21]: inactive
- inhibition [22]: inactive
- inhibition [23]: inactive
- inhibition [24]: inactive
- inhibition [25]: inactive
- inhibition [26]: inactive
- inhibition [27]: inactive
- inhibition (Homo sapiens): inactive
- inhibition [28]: inactive
- inhibition [29]: inactive
- inhibition [30]: inactive
- IC50 [31]: 69 nM
- IC50 [32]: 112 nM
- IC50 [33]: 588 nM
- IC50 [34]: 475 nM
- IC50 [35]: 131 nM
